Several values for one entry are separate records, joined by “and”; a condition that tells them apart may be missing. Equal entries are not always repeated.
Columns and labels:
autologous B cells = test: Whole blood (WB) autologous B-cell depletion assay; type: cell-based
Procedure: Further, whole blood (WB) autologous B-cell depletion and cell-death induction assays were conducted as described in Mossner et al., Blood 115:4393-402, 2010. For cell death assay: Ri-1 DLBCL cells were seeded at 15,000 cells/well in 96-well plates. Cells were preincubated with Compound B or DMSO for 1 hour before the addition of antibody. Plates were incubated at 37° C. in a humidified CO2 chamber for 3 days. Cells were washed once with PBS and treated with Accutase for 15 minutes before being stained with Guava Nexin® reagent and analyzed on the Guava EasyCyte flow cytometer (Merck Millipore).
The percentage of deplete autologous B cells in a whole blood assay may represent the antibody potency.

pS6 Ser235/236 = test: Western blot, TPO-activated S6 phosphorylation in BaF3/MPL cells; type: cell-based; details: then TPO
Procedure: In addition, Compound B was examined for the effects on the PI3K signaling pathway by determining the levels of AKT and S6 phosphorylation with or without TPO activation. Two cell lines, BaF3/MPL and UT-7/TPO sensitive or responsive to TPO activation were used. The cells were starved (i.e. growing on medium having less FBS) in […] FBS/RPMI for two hours before treated with 0.1, 1.0, or 2.0 μM of Compound B or vehicle (0.1% DMSO in RPMI) for 2 hours at 37° C. To examine the TPO-activated phosphorylation, the cells were then treated or activated with 50 ng/mL of human recombinant TPO (Peprotech) for 10 minutes at 37° C. The TPO activation or treatment may reflect the conditions in diseased cells as the PI3K pathway is activated by TPO in myelofibrosis. After treating with compound and/or TPO, the cells were collected, lysed by lysis buffer (Cell Signaling), separated by SDS-PAGE, and analyzed by the Western blot using antibodies specific to p-AKT Ser473 or pS6 Ser235/236 (Cell Signaling). The phosphorylation levels in treated cells were calculated and compared to those of untreated cells (i.e. vehicle as negative control).

[1] = system: NK-cell expression of CD107a and CD16; test: Antibody potency and NK-cell expression of CD107a and CD16; type: cell-based; details: data not shown
WIL2-S = test: ADCC LDH release assay, purified NK cells against WIL2-S target cells; type: cell-based, human; details: for Percentage of maximum obinutuzumab-mediated ADCC: Obinutuzumab 10 μg/mL, E:T=10:1, 4 h; for Percentage of maximum ADCC, rituximab: rituximab 10 μg/mL, FcγRIIIa 158F/F
Source text: PI3K isoforms may play a role in immune effector cells and FcγR signaling. The effects of Compound B on the immune effector functions of obinutuzumab and rituximab in lymphoma cell lines were examined. To characterize the antibody-dependent cellular cytotoxicity (ADCC), PBMCs were isolated from healthy individuals with FcγRIIIa genotypes of 158F/F, 158F/V, or 158V/V (Leuko Paks from AllCells, Alameda, Calif.) using Ficoll density gradient centrifugation. NK cells were enriched using a negative-selection immunomagnetic enrichment kit ([…] Technologies, Vancouver, British Columbia, Canada). Enriched NK cells and target cells WIL2-S, S-DHL-4, or Z-138 were separately pre-incubated for 1 hour with or without Compound B (1/2 dilutions from about 1 mM to about 1 nM). In the last 20 minutes of the pre-incubation, target cells were opsonized with or without rituximab or obinutuzumab (at 10 μg/mL, the saturating concentration with maximal ADCC) at indicated effector-target ratios (E:T). Palivizumab was used as an isotype control. NK and target cells were combined and incubated for 4 hours at 37° C. in 5% CO2. To determine ADCC, […] dehydrogenase (LDH) was measured using a cytotoxicity detection kit (Roche Applied Science, Indianapolis, Ind.). In some assays, antigen-independent cellular cytotoxicity (AICC) which represented spontaneous release by NK cell killing of target cells without antibodies were used as control.
LDH release assays were conducted at 4 hours using WIL2-S line as target and purified NK cells (E:T=10:1). The results (n=9) were normalized as % of maximum ADCC.

PI3Kδ = PI3Kδ (Homo sapiens, UniProt O00329); test: TR-FRET in vitro biochemical enzyme assay of class I PI3K isoforms
PI3Kδ, sequence (O00329 whole entry, canonical isoform): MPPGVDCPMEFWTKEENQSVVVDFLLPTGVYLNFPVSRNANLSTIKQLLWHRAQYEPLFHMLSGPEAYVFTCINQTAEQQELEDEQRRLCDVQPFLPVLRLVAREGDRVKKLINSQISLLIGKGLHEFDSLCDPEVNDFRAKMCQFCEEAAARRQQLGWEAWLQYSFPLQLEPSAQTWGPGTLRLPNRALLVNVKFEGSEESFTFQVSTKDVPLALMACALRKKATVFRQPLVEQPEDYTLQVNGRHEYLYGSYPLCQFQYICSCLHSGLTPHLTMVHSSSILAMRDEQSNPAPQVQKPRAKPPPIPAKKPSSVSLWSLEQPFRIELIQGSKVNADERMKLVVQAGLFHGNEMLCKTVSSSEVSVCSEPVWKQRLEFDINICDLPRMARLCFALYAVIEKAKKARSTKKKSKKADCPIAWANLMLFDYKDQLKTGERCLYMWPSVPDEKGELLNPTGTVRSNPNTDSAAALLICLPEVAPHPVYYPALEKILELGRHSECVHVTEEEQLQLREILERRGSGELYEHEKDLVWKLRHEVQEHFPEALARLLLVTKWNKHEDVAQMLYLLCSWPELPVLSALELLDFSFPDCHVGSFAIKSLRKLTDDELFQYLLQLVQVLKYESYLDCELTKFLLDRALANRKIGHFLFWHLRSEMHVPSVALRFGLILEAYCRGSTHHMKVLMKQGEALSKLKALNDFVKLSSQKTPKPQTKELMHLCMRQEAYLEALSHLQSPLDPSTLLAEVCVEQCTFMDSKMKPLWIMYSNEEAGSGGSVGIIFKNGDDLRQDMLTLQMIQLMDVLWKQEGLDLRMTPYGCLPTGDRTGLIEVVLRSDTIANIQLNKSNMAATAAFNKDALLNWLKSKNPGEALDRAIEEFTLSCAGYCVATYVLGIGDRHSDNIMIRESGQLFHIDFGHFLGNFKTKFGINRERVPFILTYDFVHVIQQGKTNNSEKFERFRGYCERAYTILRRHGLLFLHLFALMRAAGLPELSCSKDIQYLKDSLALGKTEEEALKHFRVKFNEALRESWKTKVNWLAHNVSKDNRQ
PI3Kδ, sequence (P27986 whole entry partner, canonical isoform): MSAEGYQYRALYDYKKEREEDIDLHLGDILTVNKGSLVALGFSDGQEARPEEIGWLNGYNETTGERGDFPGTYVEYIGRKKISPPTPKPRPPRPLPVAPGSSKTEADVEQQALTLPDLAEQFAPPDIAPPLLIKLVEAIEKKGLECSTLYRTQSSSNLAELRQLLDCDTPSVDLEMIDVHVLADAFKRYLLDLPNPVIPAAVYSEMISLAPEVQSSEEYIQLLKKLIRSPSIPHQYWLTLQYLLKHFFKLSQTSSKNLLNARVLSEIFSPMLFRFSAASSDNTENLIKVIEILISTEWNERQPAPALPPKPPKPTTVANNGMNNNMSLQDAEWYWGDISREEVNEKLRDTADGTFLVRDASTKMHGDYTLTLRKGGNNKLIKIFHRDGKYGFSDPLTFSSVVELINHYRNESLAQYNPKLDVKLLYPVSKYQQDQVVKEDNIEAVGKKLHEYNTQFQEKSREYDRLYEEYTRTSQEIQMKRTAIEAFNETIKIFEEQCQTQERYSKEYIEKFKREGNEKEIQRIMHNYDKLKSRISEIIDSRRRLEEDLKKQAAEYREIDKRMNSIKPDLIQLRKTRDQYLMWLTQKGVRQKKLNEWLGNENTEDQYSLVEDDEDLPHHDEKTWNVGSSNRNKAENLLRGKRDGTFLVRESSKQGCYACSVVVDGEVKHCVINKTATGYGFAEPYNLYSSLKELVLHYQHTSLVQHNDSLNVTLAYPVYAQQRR
Procedure: The effects of Compound B on the activities of class I PI3K isoforms were measured using an in vitro biochemical enzyme assay at steady-state concentrations of adenosine triphosphate (ATP). Compound B is (S)-2-(1-((9H-purin-6-yl)amino)propyl)-5-fluoro-3-phenylquinazolin-4(3H)-one as described above.
A time resolved fluorescence resonance energy transfer (TR-FRET) assay was used to monitor the formation of […] (PIP3) molecule, as it competed with fluorescently labeled PIP3 for binding to the GRP-1 pleckstrin homology domain protein.

CC[C@H](Nc1ncnc2[nH]cnc12)c1nc2cccc(F)c2c(=O)n1-c1ccccc1 [Compound B, (S)-2-(1-((9H-purin-6-yl)amino)propyl)-5-fluoro-3-phenylquinazolin-4(3H)-one]
Percentage of B-cell depletion WB (autologous B cells; Compound B alone 100 nM): 5% and −1% and −3%
Percentage of B-cell depletion WB (autologous B cells; Compound B alone 760 nM): −1% and −4%
Percentage of B-cell depletion WB (autologous B cells; Compound B alone 4200 nM): 0% and 1% and 5%
reduced p-S6 levels vs vehicle (pS6 Ser235/236; 0.1 μM 2 h): 24%
reduced p-S6 levels vs vehicle (pS6 Ser235/236; 1.0 μM 2 h): 27%
reduced p-S6 levels vs vehicle (pS6 Ser235/236; 2.0 μM 2 h): 41%
reduction of the potency of both anti-CD20 antibodies ([1]; Compound B 256 nM with obinutuzumab or rituximab 0.01-1000 ng/mL): 0 to 15%
NK-cell degranulation, surface expression of CD107a ([1]; in 2 of 3 samples): inhibited NK-cell degranulation
Percentage of maximum obinutuzumab-mediated ADCC (WIL2-S; Compound B 0.98 nM): 99% and 91% and 109% and 94% and 96% and 103% and 104% and 101%
Percentage of maximum obinutuzumab-mediated ADCC (WIL2-S; Compound B 1.95 nM): 100% and 89% and 125% and 104% and 106% and 112% and 107%
Percentage of maximum obinutuzumab-mediated ADCC (WIL2-S; Compound B 3.91 nM): 91% and 84% and 102% and 113% and 105% and 108% and 110% and 103%
Percentage of maximum obinutuzumab-mediated ADCC (WIL2-S; Compound B 7.81 nM): 90% and 89% and 98% and 113% and 105% and 109% and 107% and 94%
Percentage of maximum ADCC, rituximab (WIL2-S; Compound B 15.63 nM): 92% and 108%
Percentage of maximum obinutuzumab-mediated ADCC (WIL2-S; Compound B 31.25 nM): 82% and 85% and 102% and 107% and 96% and 95%
Percentage of maximum ADCC, rituximab (WIL2-S; Compound B 31.25 nM): 86% and 109%
Percentage of maximum obinutuzumab-mediated ADCC (WIL2-S; Compound B 62.5 nM): 78% and 88% and 103% and 95% and 108% and 112% and 98%
Percentage of maximum obinutuzumab-mediated ADCC (WIL2-S; Compound B 125 nM): 84% and 87% and 104% and 97% and 111% and 110% and 105% and 94%
Percentage of maximum obinutuzumab-mediated ADCC (WIL2-S; Compound B 250 nM): 89% and 91% and 99% and 97% and 95% and 106% and 109% and 102%
Percentage of maximum obinutuzumab-mediated ADCC (WIL2-S; Compound B 500 nM): 79% and 83% and 94% and 92% and 96% and 106% and 104%
Percentage of maximum ADCC, obinutuzumab (WIL2-S; Compound B 1000 nM, obinutuzumab 10 μg/mL, FcγRIIIa 158V/V, n=2): 83% and 82%
inhibition at […] (WIL2-S; Homo sapiens, 250 nM, FcγRIIIa 158V/V genotype, read-out: inhibition of obinutuzumab-mediated ADCC): < 10%
effect on obinutuzumab-mediated ADCC in FcγRIIIa 158F/F or 158F/V genotypes (WIL2-S; n=2 per genotype, antibody 10 μg/mL): did not affect
selectivity among PI3K isoforms (PI3Kδ): selective inhibitor to PI3Kδ
inhibition to PI3Kδ compared to PI3Kα (PI3Kδ; steady-state ATP): 450 fold
inhibition to PI3Kδ compared to PI3Kβ (PI3Kδ; steady-state ATP): 210 fold
inhibition to PI3Kδ compared to PI3Kγ (PI3Kδ; steady-state ATP): 110 fold
